# Measurements published in patent publication US4170656A, “Compositions containing cis-2-benzoyl-3-hydroxy-crotononitrile used to treat inflammation and joint deterioration” (priority 1978, dated 1979).
# Experiments:
# [1] = Adjuvant induced arthritis in rats (Freund's adjuvant); assay type: in vivo, Royal Hart, Wistar strain rats; settings: for Dead/Treated At 21 Days: days 0-13
# Method: Groups of three Royal Hart, Wistar strain rats weighing 200±10 grams each were injected intradermally in the right hind paw with Freund's adjuvant (dried human tubercle bacilli in a mineral oil vehicle) at a dose of 2 mg./kg. of body weight. Test compound was administered orally in a 1.5% starch vehicle at various doses once daily on days 0 through 13 post challenge. Control rats were treated in a similar manner, but given only starch vehicle. On the 14th and 21st day post challenge the diameter of the injected paw (primary lesion) was measured by micrometer caliper. The volume of inflamed paws were estimated from these measurements and the results are expressed as percent inhibition of swelling as compared to controls. At the same time, the other inflamed sites, such as ears, paws and tail (seconday lesions) were observed and each rat was graded as to degree of inflammation and swelling present. The grading is based on a scale of 0 to 24, where 0 represents a complete absence of induced arthritic nodules and 24 represents the maximum degree of inflammation. The mean grade for each treated group is calculated and the effects of each compound are expressed as percent inhibition of the control grade. Table I records the results of tests conducted with a typical compound of the present invention and known anti-inflammatory agents.
# [2] = Ultraviolet induced erythema in guinea pigs; assay type: in vivo, Albino guinea pigs; design: key: sum of 3 sites, each 0 = none, 0.5 = faint, 1.0 = distinct; max 3.0; settings: maximum 3.0
# Method: Albino guinea pigs were depilitated on their flanks, the evening before testing, with a standard mixture of barium sulfide and gum acacia. On the morning of the test, groups of four guinea pigs were dosed by gavage one hour prior (-1 hour) to ultraviolet exposure. At 0 hour they were restrained in a plastic container which allows exposure of 3 circular spots. They were then exposed to ultraviolet irradiation from a "Hanovia" Kromayer lamp, model 10, for 60 seconds. At one and four hours, the degree of erythema for each of the three sites was assessed according to the following scoring system: 0= no erythema, 0.5=incomplete circle or faint erythema, and 1.0=complete circle of distinct erythema. Thus, the maximum score for each animal was 3.0.
# [3] = Carrageenin induced paw edema in rats (acute anti-inflammatory activity); assay type: in vivo, Royal Hart, Wistar strain rats; settings: 250 mg./kg. by gavage; 5 hours after drug (4 hours after carrageenin); ratio greater than 1.41 is active
# Method: In determining the acute anti-inflammatory activity of the cis-2-benzoyl-3-hydroxy-2-alkenonitriles of the present invention, Royal Hart, Wistar strain rats, ranging in weight from 80 to 90 grams were used. The rats were fasted overnight prior to dosing but had free access to water. The test compounds were administered in aqueous suspension, by gavage, in a volume of 1.7 ml. per 50 grams of rat [corresponds to hydration volume used by Winter, et al., Proc. Soc. […] The phlogistic agent used was carrageenin prepared as a sterile 1% suspension in 0.9% aqueous sodium chloride for routine testing. A volume of 0.05 ml. was injected through a 26 gauge needle into the plantar tissue of the right hind paw. Measurements were made 5 hours after drug administration (4 hours after carrageenin challenge). Volumes of both the normal and carrageenin inflammed feet were determined. The difference between the two measurements is considered to be the increased edema due to the carrageenin administration.
smiles,measurement,setting,value
CC(=O)Oc1ccccc1C(=O)O [Aspirin],% Inhibition of Control Grade (secondary lesion),"[1]; oral 50 mg./kg., Day 14",12%
same,% Inhibition of Swelling (primary lesion),"[1]; oral 50 mg./kg., Day 14",23%
same,Mean Weight Gain,"[1]; oral 50 mg./kg., Day 14",56 grams
same,% Inhibition of Control Grade (secondary lesion),"[1]; oral 50 mg./kg., Day 21",9%
same,% Inhibition of Swelling (primary lesion),"[1]; oral 50 mg./kg., Day 21",3%
same,Mean Weight Gain,"[1]; oral 50 mg./kg., Day 21",44 grams
same,Dead/Treated At 21 Days,[1]; oral 50 mg./kg.,2/21
same,% Inhibition of Control Grade (secondary lesion),"[1]; oral 100 mg./kg., Day 14",19%
same,% Inhibition of Swelling (primary lesion),"[1]; oral 100 mg./kg., Day 14",36%
same,Mean Weight Gain,"[1]; oral 100 mg./kg., Day 14",48 grams
same,% Inhibition of Control Grade (secondary lesion),"[1]; oral 100 mg./kg., Day 21",8%
same,% Inhibition of Swelling (primary lesion),"[1]; oral 100 mg./kg., Day 21",13%
same,Mean Weight Gain,"[1]; oral 100 mg./kg., Day 21",53 grams
same,Dead/Treated At 21 Days,[1]; oral 100 mg./kg.,18/63
same,% Inhibition of Control Grade (secondary lesion),"[1]; oral 200 mg./kg., Day 14",26%
same,% Inhibition of Swelling (primary lesion),"[1]; oral 200 mg./kg., Day 14",48%
same,Mean Weight Gain,"[1]; oral 200 mg./kg., Day 14",40 grams
same,% Inhibition of Control Grade (secondary lesion),"[1]; oral 200 mg./kg., Day 21",17%
same,% Inhibition of Swelling (primary lesion),"[1]; oral 200 mg./kg., Day 21",27%
same,Mean Weight Gain,"[1]; oral 200 mg./kg., Day 21",44 grams
same,Dead/Treated At 21 Days,[1]; oral 200 mg./kg.,10/66
same,% Inhibition of Control Grade (secondary lesion),"[1]; oral 400 mg./kg., Day 14",58%
same,% Inhibition of Swelling (primary lesion),"[1]; oral 400 mg./kg., Day 14",73%
same,Mean Weight Gain,"[1]; oral 400 mg./kg., Day 14",41 grams
same,% Inhibition of Control Grade (secondary lesion),"[1]; oral 400 mg./kg., Day 21",45%
same,% Inhibition of Swelling (primary lesion),"[1]; oral 400 mg./kg., Day 21",48%
same,Mean Weight Gain,"[1]; oral 400 mg./kg., Day 21",55 grams
same,Dead/Treated At 21 Days,[1]; oral 400 mg./kg.,18/57
same,Erythema Score (avg.),"[2]; oral 31.3 mg./kg., 1 hour",1.2
same,Erythema Score (avg.),"[2]; oral 31.3 mg./kg., 4 hours",2.3
same,Erythema Score (avg.),"[2]; oral 62.5 mg./kg., 1 hour",0.8
same,Erythema Score (avg.),"[2]; oral 62.5 mg./kg., 4 hours",2.0
same,Erythema Score (avg.),"[2]; oral 125 mg./kg., 1 hour",0.1
same,Erythema Score (avg.),"[2]; oral 125 mg./kg., 4 hours",2.0
same,Erythema Score (avg.),"[2]; oral 250 mg./kg., 1 hour",0.1
same,Erythema Score (avg.),"[2]; oral 250 mg./kg., 4 hours",1.2
same,C/T Edema Ratio,[3],2.8
CCCCC1C(=O)N(c2ccccc2)N(c2ccccc2)C1=O [Phenylbutazone],% Inhibition of Control Grade (secondary lesion),"[1]; oral 18.8 mg./kg., Day 14",4%
same,% Inhibition of Swelling (primary lesion),"[1]; oral 18.8 mg./kg., Day 14",31%
same,Mean Weight Gain,"[1]; oral 18.8 mg./kg., Day 14",50 grams
same,% Inhibition of Control Grade (secondary lesion),"[1]; oral 18.8 mg./kg., Day 21",8%
same,% Inhibition of Swelling (primary lesion),"[1]; oral 18.8 mg./kg., Day 21",7%
same,Mean Weight Gain,"[1]; oral 18.8 mg./kg., Day 21",45 grams
same,Dead/Treated At 21 Days,[1]; oral 18.8 mg./kg.,2/21
same,% Inhibition of Control Grade (secondary lesion),"[1]; oral 37.5 mg./kg., Day 14",18%
same,% Inhibition of Swelling (primary lesion),"[1]; oral 37.5 mg./kg., Day 14",56%
same,Mean Weight Gain,"[1]; oral 37.5 mg./kg., Day 14",53 grams
same,% Inhibition of Control Grade (secondary lesion),"[1]; oral 37.5 mg./kg., Day 21",13%
same,% Inhibition of Swelling (primary lesion),"[1]; oral 37.5 mg./kg., Day 21",14%
same,Mean Weight Gain,"[1]; oral 37.5 mg./kg., Day 21",53 grams
same,Dead/Treated At 21 Days,[1]; oral 37.5 mg./kg.,5/39
same,% Inhibition of Control Grade (secondary lesion),"[1]; oral 75 mg./kg., Day 14",27%
same,% Inhibition of Swelling (primary lesion),"[1]; oral 75 mg./kg., Day 14",62%
same,Mean Weight Gain,"[1]; oral 75 mg./kg., Day 14",51 grams
same,% Inhibition of Control Grade (secondary lesion),"[1]; oral 75 mg./kg., Day 21",15%
same,% Inhibition of Swelling (primary lesion),"[1]; oral 75 mg./kg., Day 21",28%
same,Mean Weight Gain,"[1]; oral 75 mg./kg., Day 21",50 grams
same,Dead/Treated At 21 Days,[1]; oral 75 mg./kg.,2/39
same,% Inhibition of Control Grade (secondary lesion),"[1]; oral 150 mg./kg., Day 14",54%
same,% Inhibition of Swelling (primary lesion),"[1]; oral 150 mg./kg., Day 14",75%
same,Mean Weight Gain,"[1]; oral 150 mg./kg., Day 14",40 grams
same,% Inhibition of Control Grade (secondary lesion),"[1]; oral 150 mg./kg., Day 21",31%
same,% Inhibition of Swelling (primary lesion),"[1]; oral 150 mg./kg., Day 21",44%
same,Mean Weight Gain,"[1]; oral 150 mg./kg., Day 21",50 grams
same,Dead/Treated At 21 Days,[1]; oral 150 mg./kg.,2/27
same,Erythema Score (avg.),"[2]; oral 7.8 mg./kg., 1 hour",1.1
same,Erythema Score (avg.),"[2]; oral 7.8 mg./kg., 4 hours",2.9
same,Erythema Score (avg.),"[2]; oral 15.6 mg./kg., 1 hour",0.4
same,Erythema Score (avg.),"[2]; oral 15.6 mg./kg., 4 hours",2.3
same,Erythema Score (avg.),"[2]; oral 31.3 mg./kg., 1 hour",0.4
same,Erythema Score (avg.),"[2]; oral 31.3 mg./kg., 4 hours",1.7
same,Erythema Score (avg.),"[2]; oral 62.5 mg./kg., 1 hour",0.3
same,Erythema Score (avg.),"[2]; oral 62.5 mg./kg., 4 hours",0.9
same,Erythema Score (avg.),"[2]; oral 125 mg./kg., 1 hour",0.1
same,Erythema Score (avg.),"[2]; oral 125 mg./kg., 4 hours",1.1
same,Erythema Score (avg.),"[2]; oral 250 mg./kg., 1 hour",0
same,Erythema Score (avg.),"[2]; oral 250 mg./kg., 4 hours",0.5
same,C/T Edema Ratio,[3],2.3
